How the values were obtained:
[1] = system: MMEJ activity in PEO4 cells; test: Microhomology mediated end-joining assay (MMEJ), PEO4; assay type: cell-based; settings: 72 hours
Excerpt: FIG. 11. PARP inhibition fails to induce microhomology-mediated end-joining (MMEJ). (A) Schematic of the reporter substrate used to assay for MMEJ activity. Cleavage of pDVG94 with EcoRV and AfeI creates a blunt-ended linearized substrate, with identical 6-bp ends. Direct joining by NHEJ will result in maintenance of both repeats, but MMEJ will excise one repeat, introducing a new BstXI site. PCR across recircularized substrate produces a product of 180 bp, which can be cut into 120 and 60 bp fragments if the BstXI site was created. This figure is adapted from a figure provided elsewhere (Verkaik et al., Eur. J. Immunol., 32:701-709 (2002)). (B) and (C) Agarose gel from a representative MMEJ assay. PEO1 (B, lanes 1-10) and PEO4 (C) cells were treated with increasing concentrations of ABT-888 following transfection with linearized pDVG94. The size of the initial PCR product (180 bp) as well as BstXI cleaved products (120 bp and 60 bp) are indicated. As a positive and negative control, a cell line previously documented to undergo MMEJ (Lou et al., J. Biol. Chem., 279:46359-46362 (2004)), M059J (B, lanes 11 and 12), and a MMEJ-negative line, M059J+DNA-PKcs (B, lanes 13 and 14) were used. Images were captured from one gel and cut to create two panels. […]

[2] = system: phospho-H2AX and phospho-DNA-PKcs foci in HCC1937 cells; test: Immunofluorescence / confocal foci in HCC1937 cells; assay type: cell-based
Description: FIG. 15. Upon PARP inhibition, HCC1937 cells form phospho-H2AX foci that colocalize to regions of activated DNA-PK. (A) Quantitation of cells positive for phospho-H2AX foci in HCC1937 and HCC1937/BRCA1 cells, following treatment with 0.2% DMSO, 250 nM DNA-PKi, 20 μM ABT-888 (ABT), ABT-888 and DNA-PKi, 50 μM etoposide (Etop), or 5 Gy ionizing radiation (IR). Cells were exposed to ABT-888 and/or DNA-PKi for 72 hours, etoposide for 1 hour, or allowed to recover 1 hour post-IR. Results are reported as mean±SEM of 3 independent experiments. (B) Confocal microscopy after staining with antibodies to phospho-H2AX (Ser^139) and phospho-DNA PKcs (Thr^2609) as in FIG. 2D. HCC1937 cells are shown on the left, and reconstituted HCC1937/BRCA1 cells on the right.
Immunofluorescence studies were performed as described elsewhere (Segovis et al., J. Immunol., 182:6933-6942 (2009)) with several modifications. […]
Coverslips were then washed three times with PBS and incubated for 1 h with Alexa Fluor 488- and/or 568-conjugated secondary antibody (Invitrogen) diluted 1:1000. […] Phospho-H2AX positive cells (defined as having >10 foci/cell) were counted on a Zeiss Axioplan microscope. […] Quantitation and image processing were performed using the Zeiss Zen software package and Adobe Photoshop CS3.

Row | SMILES | induction of MMEJ [1] | effect on ABT-888 induced colocalization of phospho-Thr2609-DNA-PK and phospho-Ser139-H2AX in foci [2] | effect on formation of H2AX foci ([2]; 250 nM DNA-PKi with 20 μM ABT-888, 72 hours)
1 | C[C@]1(c2nc3c(C(N)=O)cccc3[nH]2)CCCN1 [ABT-888] | not detected |  | 
2 | CCN1CCN(CC(=O)Nc2ccc(-c3cccc4c(=O)cc(N5CCOCC5)oc34)c3sc4ccccc4c23)CC1 [AZ 12594248] |  | inhibited ABT-888 induced colocalization | diminished formation of H2AX foci
